Data as given in EPA's ToxRefDB 2.

Key:
mouse [1] = details: Chronic toxicity, b6c3f1, Oral, Feed, dose end: 2 year, group: systemic
rat [2] = details: Combined chronic toxicity/carcinogenicity, fischer, Oral, Feed, dose end: 2 year, group: systemic
mouse [3] = details: Subchronic oral toxicity in rodents, cd1, Feed, dose end: 14 week, group: systemic
mouse [4] = details: Subchronic oral toxicity in rodents, b6c3f1, Feed, dose end: 14 week, group: systemic, systemic / organ weight / liver / absolute + systemic / organ weight / liver / relative to body weight + systemic / pathology microscopic / …
mouse [5] = details: Chronic toxicity; cd1; Oral; Feed; dose end: 57 week; group: systemic; systemic / pathology microscopic / heart / amyloid deposition + systemic / pathology microscopic / liver / eosinophilic focus + systemic / …
mouse [6] = details: Developmental neurotoxicity study; cd1; Injection; Subcutaneous; dose end: 35 PND; group: cannot be grouped; developmental / developmental landmark / eye opening / eye opening + systemic / in life observation / clinical signs / [other] + systemic / …
mouse [7] = details: Prenatal developmental toxicity study, cd1, Oral, Gavage/Intubation, dose end: 16 GD
rat [8] = details: Developmental neurotoxicity study; other; Oral; Water; dose end: 20 PND; group: cannot be grouped; systemic / in life observation / body weight / body weight gain + systemic / in life observation / food consumption / food consumption + …
rat [9] = details: Combined chronic toxicity/carcinogenicity, sprague dawley, Oral, Feed, dose end: 113 week, group: systemic
mouse [10] = details: Multigenerational reproductive toxicity study; cd1; Oral; Feed; dose end: 1 generation; group: offspring; systemic / in life observation / body weight / offspring (pup) weight
rat [11] = details: Prenatal developmental toxicity study; other; Oral; Water; dose end: 19 GD; group: maternal; systemic / in life observation / water consumption / water consumption
rat [12] = details: Prenatal developmental toxicity study; other; Oral; Gavage/Intubation; dose end: 19 GD; group: maternal; systemic / in life observation / food consumption / food consumption
mouse [13] = details: Combined chronic toxicity/carcinogenicity, cd1, Oral, Feed, dose end: 104 week, group: systemic
mouse [14] = details: Carcinogenicity, b6c3f1, Oral, Feed, dose end: 58 week, group: systemic
rat [15] = details: Carcinogenicity, fischer, Oral, Feed, dose end: 78 week, group: systemic
[16] = systemic / pathology microscopic / liver / hypertrophy + systemic / pathology microscopic / thyroid gland / hyperplasia
[17] = systemic / pathology microscopic / liver / hypertrophy + systemic / pathology microscopic / thyroid gland / hyperplasia + systemic / in life…
[18] = systemic / in life observation / body weight / body weight + systemic / pathology microscopic / kidney / adenoma + systemic / in life …
[19] = systemic / pathology microscopic / kidney / nephropathy
[20] = systemic / in life observation / clinical signs / grip strength + systemic / organ weight / liver / absolute + systemic / organ weight / …
[21] = systemic / organ weight / liver / absolute + systemic / pathology microscopic / liver / hypertrophy
[22] = group: developmental, developmental / developmental malformation / bone / supernumerary + developmental / developmental malformation / general / hemorrhage + …
[23] = group: maternal, reproductive / reproductive performance / resorptions / resorptions + systemic / in life observation / clinical signs / abnormal movements…
[24] = systemic / in life observation / body weight / body weight + systemic / in life observation / clinical signs / feces, discoloration + …
[25] = systemic / in life observation / clinical signs / fur (altered appearance)
[26] = systemic / in life observation / clinical signs / fur (altered appearance) + systemic / in life observation / clinical signs / skin …
[27] = systemic / pathology microscopic / liver / hyperplasia
[28] = systemic / pathology microscopic / liver / hyperplasia + systemic / pathology microscopic / liver / adenoma + systemic / pathology …
[29] = systemic / pathology microscopic / liver / neoplastic nodule

**Q.** For `O=C1Nc2ccc(Cl)cc2C(c2ccccc2)=NC1O` (centres undefined) [Oxazepam], which LOAEL (mouse [1]; [16]) is on record?
**A.** 12 mg/kg/day

**Q.** What about the NOAEL (mouse [1]; [16]) of the same compound?
**A.** < 12 mg/kg/day

**Q.** What about the LEL (mouse [1]; [17]) of the same compound?
**A.** 12 mg/kg/day

**Q.** And the NEL (mouse [1]; [17])?
**A.** < 12 mg/kg/day

**Q.** What about the LOAEL (rat [2]; [18]) of the same compound?
**A.** > 630 mg/kg/day

**Q.** And the NOAEL (rat [2]; [18])?
**A.** ≥ 630 mg/kg/day

**Q.** And the LEL (rat [2]; [19])?
**A.** 25 mg/kg/day

**Q.** What about the NEL (rat [2]; [19]) of the same compound?
**A.** < 25 mg/kg/day

**Q.** What about the LOAEL (mouse [3]; [20]) of the same compound?
**A.** > 1400 mg/kg/day

**Q.** What about the NOAEL (mouse [3]; [20]) of the same compound?
**A.** ≥ 1400 mg/kg/day

**Q.** What about the LEL (mouse [3]; [21]) of the same compound?
**A.** 80 mg/kg/day

**Q.** What about the NEL (mouse [3]; [21]) of the same compound?
**A.** < 80 mg/kg/day

**Q.** What about the LEL (mouse [4]) of the same compound?
**A.** 100 mg/kg/day

**Q.** And the LOAEL (mouse [4])?
**A.** > 1810 mg/kg/day

**Q.** And the NEL (mouse [4])?
**A.** < 100 mg/kg/day

**Q.** And the NOAEL (mouse [4])?
**A.** ≥ 1810 mg/kg/day

**Q.** And the LEL (mouse [5])?
**A.** 270 mg/kg/day

**Q.** And the LOAEL (mouse [5])?
**A.** 270 mg/kg/day

**Q.** What about the NEL (mouse [5]) of the same compound?
**A.** < 270 mg/kg/day

**Q.** And the NOAEL (mouse [5])?
**A.** < 270 mg/kg/day

**Q.** For `CN1CCC[C@H]1c1cccnc1` [Nicotine], which LEL (mouse [6]) is on record?
**A.** 0.5 mg/kg/day

**Q.** And the LOAEL (mouse [6])?
**A.** > 0.5 mg/kg/day

**Q.** What about the NEL (mouse [6]) of the same compound?
**A.** < 0.5 mg/kg/day

**Q.** What about the NOAEL (mouse [6]) of the same compound?
**A.** ≥ 0.5 mg/kg/day

**Q.** And the LEL (mouse [7]; group: developmental, developmental / developmental malformation / bone / supernumerary)?
**A.** 12 mg/kg/day

**Q.** And the LOAEL (mouse [7]; [22])?
**A.** > 20 mg/kg/day

**Q.** And the NEL (mouse [7]; [22])?
**A.** 4 mg/kg/day

**Q.** And the NOAEL (mouse [7]; [22])?
**A.** ≥ 20 mg/kg/day

**Q.** What about the LEL (mouse [7]; [23]) of the same compound?
**A.** 12 mg/kg/day

**Q.** And the LOAEL (mouse [7]; [23])?
**A.** > 20 mg/kg/day

**Q.** What about the NEL (mouse [7]; [23]) of the same compound?
**A.** 4 mg/kg/day

**Q.** What about the NOAEL (mouse [7]; [23]) of the same compound?
**A.** ≥ 20 mg/kg/day

**Q.** What about the LEL (rat [8]) of the same compound?
**A.** 2.9 mg/kg/day

**Q.** And the LOAEL (rat [8])?
**A.** > 4.4 mg/kg/day

**Q.** What about the NEL (rat [8]) of the same compound?
**A.** < 2.9 mg/kg/day

**Q.** What about the NOAEL (rat [8]) of the same compound?
**A.** ≥ 4.4 mg/kg/day

**Q.** How did the LOAEL (rat [9]; [24]) turn out when `O=C([O-])c1[nH]n(-c2ccc(S(=O)(=O)[O-])cc2)c(=O)c1N=Nc1ccc(S(=O)(=O)[O-])cc1.[Na+].[Na+].[Na+]` [FD&C Yellow 5] was run?
**A.** > 2640 mg/kg/day

**Q.** What about the NOAEL (rat [9]; [24]) of the same compound?
**A.** ≥ 2640 mg/kg/day

**Q.** And the LEL (rat [9]; [25])?
**A.** 48 mg/kg/day

**Q.** What about the NEL (rat [9]; [25]) of the same compound?
**A.** < 48 mg/kg/day

**Q.** And the LEL (mouse [10])?
**A.** 771 mg/kg/day

**Q.** And the LOAEL (mouse [10])?
**A.** > 771 mg/kg/day

**Q.** What about the NEL (mouse [10]) of the same compound?
**A.** 260 mg/kg/day

**Q.** And the NOAEL (mouse [10])?
**A.** ≥ 771 mg/kg/day

**Q.** What about the LEL (rat [11]) of the same compound?
**A.** 1060 mg/kg/day

**Q.** And the LOAEL (rat [11])?
**A.** > 1060 mg/kg/day

**Q.** What about the NEL (rat [11]) of the same compound?
**A.** 568 mg/kg/day

**Q.** What about the NOAEL (rat [11]) of the same compound?
**A.** ≥ 1060 mg/kg/day

**Q.** What about the LEL (rat [12]) of the same compound?
**A.** 1000 mg/kg/day

**Q.** And the LOAEL (rat [12])?
**A.** > 1000 mg/kg/day

**Q.** What about the NEL (rat [12]) of the same compound?
**A.** 600 mg/kg/day

**Q.** And the NOAEL (rat [12])?
**A.** ≥ 1000 mg/kg/day

**Q.** And the LOAEL (mouse [13]; [24])?
**A.** > 8100 mg/kg/day

**Q.** What about the NOAEL (mouse [13]; [24]) of the same compound?
**A.** ≥ 8100 mg/kg/day

**Q.** What about the LEL (mouse [13]; [26]) of the same compound?
**A.** 714 mg/kg/day

**Q.** What about the NEL (mouse [13]; [26]) of the same compound?
**A.** < 714 mg/kg/day

**Q.** With `O=Nc1ccc(Nc2ccccc2)cc1` [4-Nitrosodiphenylamine] as the compound, how does the LOAEL (mouse [14]; [27]) read?
**A.** 638 mg/kg/day

**Q.** What about the NOAEL (mouse [14]; [27]) of the same compound?
**A.** < 638 mg/kg/day

**Q.** And the LEL (mouse [14]; [28])?
**A.** 638 mg/kg/day

**Q.** What about the NEL (mouse [14]; [28]) of the same compound?
**A.** < 638 mg/kg/day

**Q.** And the LOAEL (rat [15]; systemic / in life observation / body weight / body weight)?
**A.** 250 mg/kg/day

**Q.** What about the NOAEL (rat [15]; systemic / in life observation / body weight / body weight + systemic / pathology microscopic / liver / neoplastic nodule + systemic / …) of the same compound?
**A.** 125 mg/kg/day

**Q.** And the LEL (rat [15]; [29])?
**A.** 125 mg/kg/day

**Q.** And the NEL (rat [15]; [29])?
**A.** < 125 mg/kg/day
